Columns and labels:
Assay in all cases: relative viability (nuclei count vs DMSO), 5 days (fraction); higher = more cells survive
Vemurafenib + Phenformin = compound: CCCS(=O)(=O)Nc1ccc(F)c(C(=O)c2c[nH]c3ncc(-c4ccc(Cl)cc4)cc23)c1F [Vemurafenib] + N=C(N)NC(=N)NCCc1ccccc1 [Phenformin] (partner 250 µM)
Procedure, shortened: (§1)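 Relative viability was taken as the ratio of nuclei in treated wells to nuclei in vehicle wells. Lung cancer cell lines in 1536-well plates received compounds by pin tool one day after seeding, either one drug alone or a fixed anchor-drug dose plus five library-drug doses (not always all listed) in √10 steps. Nuclei were counted on 4× images after 5 days of treatment, and values are medians of duplicate plates.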

OSI-027 + Tozasertib = compound: COc1cccc2cc(-c3nc([C@H]4CC[C@H](C(=O)O)CC4)n4ncnc(N)c34)[nH]c12 [OSI-027] + Cc1cc(Nc2cc(N3CCN(C)CC3)nc(Sc3ccc(NC(=O)C4CC4)cc3)n2)n[nH]1 [Tozasertib] (partner 0.1 µM)
Procedure, shortened: as §1

OSI-027 + Phenformin = compound: COc1cccc2cc(-c3nc([C@H]4CC[C@H](C(=O)O)CC4)n4ncnc(N)c34)[nH]c12 [OSI-027] + N=C(N)NC(=N)NCCc1ccccc1 [Phenformin] (partner 250 µM)
Procedure, shortened: as §1

Alpelisib + Olaparib = compound: Cc1nc(NC(=O)N2CCC[C@H]2C(N)=O)sc1-c1ccnc(C(C)(C)C(F)(F)F)c1 [Alpelisib] + O=C(c1cc(Cc2n[nH]c(=O)c3ccccc23)ccc1F)N1CCN(C(=O)C2CC2)CC1 [Olaparib] (partner 8 µM)
Procedure, shortened: as §1

Cell Line | relative viability (Vemurafenib + Phenformin; first compound 0.03162 µM) | relative viability (Vemurafenib + Phenformin; first compound 0.1 µM) | relative viability (Vemurafenib + Phenformin; first compound 0.3162 µM) | relative viability (Vemurafenib + Phenformin; first compound 1 µM) | relative viability (OSI-027 + Tozasertib; first compound 0.01 µM) | relative viability (OSI-027 + Tozasertib; first compound 0.03162 µM) | relative viability (OSI-027 + Tozasertib; first compound 0.1 µM) | relative viability (OSI-027 + Tozasertib; first compound 0.3162 µM) | relative viability (OSI-027 + Tozasertib; first compound 1 µM) | relative viability (OSI-027 + Phenformin; first compound 0.01 µM) | relative viability (OSI-027 + Phenformin; first compound 0.03162 µM) | relative viability (OSI-027 + Phenformin; first compound 0.1 µM) | relative viability (OSI-027 + Phenformin; first compound 0.3162 µM) | relative viability (OSI-027 + Phenformin; first compound 1 µM) | relative viability (Alpelisib + Olaparib; first compound 0.04 µM) | relative viability (Alpelisib + Olaparib; first compound 0.1265 µM) | relative viability (Alpelisib + Olaparib; first compound 0.4 µM) | relative viability (Alpelisib + Olaparib; first compound 1.265 µM) | relative viability (Alpelisib + Olaparib; first compound 4 µM)
NCI-H460 | 0.495 | 0.52 | 0.316 | 0.52 | 0.511 | 0.338 | 0.469 | 0.593 | 0.278 | 0.656 | 0.648 | 0.567 | 0.542 | 0.224 | 0.446 | 0.501 | 0.496 | 0.42 | 0.375
NCI-H520 | 0.564 | 0.702 | 0.435 | 0.496 | 0.429 | 0.385 | 0.396 | 0.339 | 0.193 | 0.581 | 0.456 | 0.28 | 0.21 | 0.187 | 0.285 | 0.298 | 0.331 | 0.231 | 0.272
NCI-H522 | 0.651 | 0.536 | 0.547 | 0.622 | 0.536 | 0.625 | 0.524 | 0.522 | 0.431 | 0.72 | 0.57 | 0.583 | 0.506 | 0.508 | 0.795 | 0.693 | 0.529 | 0.661 | 0.491
NCI-H596 | 0.871 | 0.748 | 0.725 | 0.56 | 0.999 | 0.804 | 0.859 | 0.811 | 0.47 | 0.875 | 0.576 | 0.844 | 0.865 | 0.614 | 0.705 | 0.701 | 0.778 | 0.491 | 0.438
NCI-H647 | 0.439 | 0.404 | 0.446 | 0.376 | 0.401 | 0.291 | 0.292 | 0.433 | 0.147 | 0.569 | 0.565 | 0.475 | 0.415 | 0.242 | 0.534 | 0.485 | 0.569 | 0.487 | 0.436
NCI-H650 | 0.437 | 0.443 |  | 0.37 | 0.711 | 0.738 | 0.637 | 0.605 | 0.411 | 0.424 | 0.487 | 0.394 | 0.417 | 0.285 | 0.391 | 0.409 | 0.425 | 0.378 | 0.317
NCI-H661 | 0.251 | 0.289 | 0.258 | 0.307 | 0.357 | 0.374 | 0.362 | 0.344 | 0.351 | 0.263 | 0.286 | 0.254 | 0.258 | 0.245 | 0.734 | 0.773 | 0.878 | 0.732 | 0.749
NCI-H727 | 0.508 |  | 0.718 | 0.559 | 0.584 | 0.65 | 0.716 | 0.725 | 0.456 | 0.569 | 0.546 | 0.557 | 0.466 | 0.407 | 0.816 | 0.708 | 0.768 | 0.754 | 0.448
NCI-H838 | 0.506 | 0.581 |  | 0.672 | 0.307 | 0.482 | 0.264 | 0.26 | 0.214 | 0.588 | 0.62 | 0.479 | 0.339 | 0.28 | 0.774 | 0.754 | 0.744 | 0.637 | 0.613
NCI-H1355 | 0.424 | 0.426 | 0.36 | 0.487 | 0.546 | 0.492 | 0.541 | 0.461 | 0.361 | 0.409 | 0.45 | 0.46 | 0.407 | 0.304 | 0.747 | 0.727 | 0.807 | 0.629 | 0.519
NCI-H1395 | 0.425 | 0.433 |  | 0.495 | 0.675 | 0.718 | 0.683 | 0.67 | 0.611 | 0.446 | 0.431 | 0.396 | 0.401 | 0.369 | 0.45 | 0.511 | 0.472 | 0.408 | 0.451
NCI-H1437 | 0.258 | 0.315 | 0.29 | 0.309 | 0.418 | 0.379 | 0.456 | 0.413 | 0.318 | 0.31 | 0.292 | 0.296 | 0.286 | 0.211 | 0.64 | 0.684 | 0.679 | 0.627 | 0.644
NCI-H1650 |  | 0.353 |  | 0.376 | 0.454 | 0.347 | 0.36 | 0.424 | 0.355 | 0.37 | 0.366 | 0.444 | 0.378 | 0.253 | 0.878 | 0.786 | 0.932 | 0.523 | 0.622
NCI-H1651 | 0.318 | 0.295 | 0.325 | 0.311 | 0.669 | 0.642 | 0.801 | 0.692 | 0.591 | 0.364 | 0.285 | 0.299 | 0.256 | 0.25 | 0.182 | 0.188 | 0.203 | 0.198 | 0.17
NCI-H1666 | 0.549 | 0.594 | 0.63 | 0.604 | 0.611 | 0.686 | 0.646 | 0.629 | 0.537 | 0.548 | 0.603 | 0.556 | 0.639 | 0.578 | 0.771 | 0.774 | 0.816 | 0.704 | 0.688
NCI-H1734 | 0.403 | 0.358 | 0.359 | 0.356 | 0.299 | 0.271 | 0.265 | 0.222 | 0.24 | 0.398 | 0.398 | 0.384 | 0.346 | 0.238 | 0.584 | 0.328 | 0.61 | 0.425 | 0.35
NCI-H1755 | 0.545 | 0.599 | 0.377 | 0.597 | 0.532 | 0.559 | 0.524 | 0.484 | 0.409 | 0.615 | 0.696 | 0.594 | 0.569 | 0.451 | 0.928 | 0.892 | 0.917 | 0.818 | 0.788
